Key:
Klebsiella pneumoniae [1] = assay: Inhibition of Klebsiella pneumoniae KP1009 CTX-M-15 assessed as minimum concentration of compound required to reduce the MIC of aztreonam to 4 ug/ml
Escherichia coli [2] = assay: Inhibition of Escherichia coli KP308 SHV-5 assessed as minimum concentration of compound required to reduce the MIC of aztreonam to 4 ug/ml
Escherichia coli [3] = assay: Inhibition of Escherichia coli EC302 TEM-10 assessed as minimum concentration of compound needed to reduce the MIC of aztreonam to 4 ug/ml
[4] = target: Beta-lactamase (Klebsiella pneumoniae) (UniProt Q93LQ9); assay: Inhibition of Klebsiella pneumoniae KP1004 KPC-2 assessed as minimum concentration of compound needed to reduce the MIC of aztreonam to 4 ug/ml
Enterobacter cloacae = assay: Inhibition of Enterobacter cloacae ECL1002 AmpC assessed as minimum concentration of compound needed to reduce the MIC of aztreonam to 4 ug/ml
Klebsiella pneumoniae [5] = assay: Inhibition of Klebsiella pneumoniae KP1081 NDM-1 assessed as minimum concentration of compound required to reduce the MIC of biapenem to 1 ug/ml
Klebsiella pneumoniae [6] = assay: Inhibition of Klebsiella pneumoniae KP1054 VIM-1 assessed as minimum concentration of compound required to reduce the MIC of biapenem to 1 ug/ml
Pseudomonas aeruginosa = assay: Inhibition of Pseudomonas aeruginosa PAM 2035 AmpC assessed as minimum concentration of compound needed to reduce the MIC of aztreonam to 4 ug/ml
Klebsiella pneumoniae [7] = assay: Inhibition of Klebsiella pneumoniae KP1160 IMP-26 assessed as minimum concentration of compound needed to reduce the MIC of meropenem to 1 ug/ml
Escherichia coli [8] = assay: Inhibition of Escherichia coli ECM6625 SHV-5 assessed as minimum concentration of compound needed to reduce the MIC of aztreonam to 4 ug/ml
Escherichia coli [9] = assay: Inhibition of Escherichia coli ECM6619 TEM-10 assessed as minimum concentration of compound needed to reduce the MIC of aztreonam to 4 ug/ml
Acinetobacter baumannii = assay: Inhibition of Acinetobacter baumannii AB1053 OXA-72 assessed as minimum concentration of compound needed to reduce the MIC of meropenem to 8 ug/ml
[10] = target: Beta-lactamase OXA-23 (Acinetobacter baumannii) (UniProt Q9L4P2); assay: Inhibition of Acinetobacter baumannii AB1054 OXA-23 assessed as minimum concentration of compound needed to reduce the MIC of meropenem to 8 ug/ml
Chain of Beta-lactamase OXA-23 (Acinetobacter baumannii) (Q9L4P2 whole entry): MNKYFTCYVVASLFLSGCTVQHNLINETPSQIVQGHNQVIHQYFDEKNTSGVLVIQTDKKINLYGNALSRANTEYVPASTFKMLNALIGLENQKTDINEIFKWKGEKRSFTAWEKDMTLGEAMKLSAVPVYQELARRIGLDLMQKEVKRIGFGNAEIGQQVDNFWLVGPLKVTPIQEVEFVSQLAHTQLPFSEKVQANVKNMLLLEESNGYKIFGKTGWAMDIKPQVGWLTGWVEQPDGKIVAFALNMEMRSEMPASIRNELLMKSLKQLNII

Chain of Beta-lactamase (Klebsiella pneumoniae) (Q93LQ9 as listed by the source): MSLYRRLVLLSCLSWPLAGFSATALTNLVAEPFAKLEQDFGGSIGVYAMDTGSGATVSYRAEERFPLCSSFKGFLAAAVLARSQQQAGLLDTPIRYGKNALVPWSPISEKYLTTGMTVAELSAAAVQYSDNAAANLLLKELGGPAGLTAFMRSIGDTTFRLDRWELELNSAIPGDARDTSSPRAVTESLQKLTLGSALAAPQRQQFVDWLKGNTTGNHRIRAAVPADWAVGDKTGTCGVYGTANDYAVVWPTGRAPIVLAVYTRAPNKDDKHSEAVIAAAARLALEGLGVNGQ

MEC (Klebsiella pneumoniae [1])	MEC (Escherichia coli [2])	MEC (Escherichia coli [3])	MEC [4]	MEC (Enterobacter cloacae)	MEC (Klebsiella pneumoniae [5])	MEC (Klebsiella pneumoniae [6])	MEC (Pseudomonas aeruginosa)	MEC (Klebsiella pneumoniae [7])	MEC (Escherichia coli [8])	MEC (Escherichia coli [9])	MEC (Acinetobacter baumannii)	MEC [10]	Compound
10 µg/mL	5 µg/mL	5 µg/mL	0.16 µg/mL	10 µg/mL	1.25 µg/mL	10 µg/mL	2.5 µg/mL	> 20 µg/mL	5 µg/mL	5 µg/mL	20 µg/mL	20 µg/mL	O=C(O)c1cccc2c1OB(O)[C@H]1C[C@@H]21
> 20 µg/mL	> 20 µg/mL	> 20 µg/mL	5 µg/mL	> 20 µg/mL	10 µg/mL	20 µg/mL	1.25 µg/mL	> 20 µg/mL	> 20 µg/mL	> 20 µg/mL	> 20 µg/mL	> 20 µg/mL	C[C@@H]1Cc2cccc(C(=O)O)c2OB1O
> 20 µg/mL	10 µg/mL	20 µg/mL	20 µg/mL	> 20 µg/mL	2.5 µg/mL	2.5 µg/mL	> 20 µg/mL	> 20 µg/mL	–	–	–	–	N#CCOc1ccc2c(c1C(=O)O)OB(O)[C@@H](Sc1nncs1)C2
1.25 µg/mL	1.25 µg/mL	1.25 µg/mL	0.16 µg/mL	0.3 µg/mL	5 µg/mL	> 20 µg/mL	5 µg/mL	2.5 µg/mL	1.25 µg/mL	1.25 µg/mL	2.5 µg/mL	5 µg/mL	COc1ccc2c(c1C(=O)O)OB(O)C(F)=C2
> 10 µg/mL	> 10 µg/mL	> 10 µg/mL	5 µg/mL	> 10 µg/mL	0.6 µg/mL	2.5 µg/mL	–	–	–	–	–	–	NC(=O)CS[C@H]1Cc2cccc(C(=O)O)c2OB1O
> 20 µg/mL	> 20 µg/mL	> 20 µg/mL	> 20 µg/mL	> 20 µg/mL	< 0.3 µg/mL	< 0.3 µg/mL	–	–	–	–	–	–	Nc1nnc(S[C@H]2Cc3cccc(C(=O)O)c3OB2O)[nH]1
> 20 µg/mL	10 µg/mL	> 20 µg/mL	> 20 µg/mL	> 20 µg/mL	0.3 µg/mL	2.5 µg/mL	–	–	–	–	–	–	O=C(O)c1cccc2c1OB(O)[C@@H](Sc1nccs1)C2
> 20 µg/mL	> 20 µg/mL	> 20 µg/mL	> 20 µg/mL	> 20 µg/mL	< 0.3 µg/mL	< 0.3 µg/mL	–	–	–	–	–	–	Cn1cnnc1S[C@H]1Cc2cccc(C(=O)O)c2OB1O
> 20 µg/mL	> 20 µg/mL	> 20 µg/mL	> 20 µg/mL	> 20 µg/mL	> 20 µg/mL	> 20 µg/mL	–	–	–	–	–	–	N=C(N)S[C@H]1Cc2cccc(C(=O)O)c2OB1O
> 20 µg/mL	> 20 µg/mL	> 20 µg/mL	> 20 µg/mL	2.5 µg/mL	0.6 µg/mL	0.6 µg/mL	–	–	–	–	–	–	O=C(O)c1cccc2c1OB(O)[C@@H](OC1CNC1)C2
> 20 µg/mL	> 20 µg/mL	> 20 µg/mL	> 20 µg/mL	> 20 µg/mL	10 µg/mL	20 µg/mL	–	–	–	–	–	–	O=C(O)c1cccc2c1OB(O)[C@@H](Sc1ncccn1)C2
> 20 µg/mL	5 µg/mL	> 20 µg/mL	> 20 µg/mL	> 20 µg/mL	0.3 µg/mL	0.6 µg/mL	–	–	–	–	–	–	O=C(O)c1cccc2c1OB(O)[C@@H](Sc1c[nH]nn1)C2
> 20 µg/mL	10 µg/mL	> 20 µg/mL	20 µg/mL	> 20 µg/mL	2.5 µg/mL	1.25 µg/mL	10 µg/mL	0.6 µg/mL	–	–	–	–	CSCCOc1ccc2c(c1C(=O)O)OB(O)[C@@H](Sc1nncs1)C2
5 µg/mL	> 40 µg/mL	> 40 µg/mL	> 40 µg/mL	> 40 µg/mL	< 0.3 µg/mL	2.5 µg/mL	–	–	–	–	–	–	O=C(O)c1cccc2c1OB(O)[C@@H](Sc1nnc[nH]1)C2
> 10 µg/mL	5 µg/mL	> 10 µg/mL	10 µg/mL	> 10 µg/mL	0.3 µg/mL	0.16 µg/mL	–	–	–	–	–	–	Nc1nnc(S[C@H]2Cc3cccc(C(=O)O)c3OB2O)s1
> 20 µg/mL	10 µg/mL	20 µg/mL	> 20 µg/mL	> 20 µg/mL	1.25 µg/mL	0.16 µg/mL	20 µg/mL	0.3 µg/mL	–	–	–	–	O=C(O)c1c(OCC2CC2)ccc2c1OB(O)[C@@H](Sc1nncs1)C2
10 µg/mL	10 µg/mL	> 20 µg/mL	5 µg/mL	5 µg/mL	0.16 µg/mL	0.3 µg/mL	–	–	–	–	–	–	Nn1cnnc1S[C@H]1Cc2cccc(C(=O)O)c2OB1O

MEC (Klebsiella pneumoniae [1])	MEC (Escherichia coli [2])	MEC (Escherichia coli [3])	MEC [4]	MEC (Enterobacter cloacae)	MEC (Klebsiella pneumoniae [5])	MEC (Klebsiella pneumoniae [6])	MEC (Pseudomonas aeruginosa)	MEC (Klebsiella pneumoniae [7])	MEC (Escherichia coli [8])	MEC (Escherichia coli [9])	MEC (Acinetobacter baumannii)	MEC [10]	Compound
20 µg/mL	–	–	0.6 µg/mL	5 µg/mL	1.25 µg/mL	10 µg/mL	0.6 µg/mL	> 20 µg/mL	20 µg/mL	10 µg/mL	> 20 µg/mL	20 µg/mL	O=C(O)c1cccc2c1OB(O)CC2
2.5 µg/mL	–	–	0.16 µg/mL	1.25 µg/mL	1.25 µg/mL	20 µg/mL	0.3 µg/mL	> 20 µg/mL	5 µg/mL	0.08 µg/mL	1.25 µg/mL	2.5 µg/mL	O=C(O)c1nccc2c1OB(O)CC2
20 µg/mL	2.5 µg/mL	20 µg/mL	5 µg/mL	> 20 µg/mL	1.25 µg/mL	1.25 µg/mL	20 µg/mL	20 µg/mL	–	–	–	–	O=C(O)c1c(OC(F)F)ccc2c1OB(O)[C@@H](Sc1nncs1)C2
> 10 µg/mL	> 10 µg/mL	> 10 µg/mL	> 10 µg/mL	> 10 µg/mL	> 20 µg/mL	> 20 µg/mL	–	–	–	–	–	–	O=C(O)c1cccc2c1OB(O)[C@@H](Sc1ccccn1)C2
> 20 µg/mL	> 20 µg/mL	> 20 µg/mL	10 µg/mL	> 20 µg/mL	1.25 µg/mL	0.3 µg/mL	20 µg/mL	1.25 µg/mL	–	–	–	–	Nc1nnc(S[C@H]2Cc3ccc(OCC(F)F)c(C(=O)O)c3OB2O)s1
> 20 µg/mL	> 20 µg/mL	> 20 µg/mL	2.5 µg/mL	> 20 µg/mL	0.6 µg/mL	< 0.3 µg/mL	–	–	–	–	–	–	CS[C@H]1Cc2cccc(C(=O)O)c2OB1O
> 20 µg/mL	> 20 µg/mL	> 20 µg/mL	> 20 µg/mL	> 20 µg/mL	> 20 µg/mL	20 µg/mL	> 20 µg/mL	> 20 µg/mL	–	–	–	–	O=C(O)c1c(OC2COC2)ccc2c1OB(O)[C@@H](Sc1nncs1)C2
> 20 µg/mL	> 20 µg/mL	> 20 µg/mL	5 µg/mL	> 20 µg/mL	1.25 µg/mL	1.25 µg/mL	–	–	–	–	–	–	NC(=O)CCS[C@H]1Cc2cccc(C(=O)O)c2OB1O
0.6 µg/mL	–	–	0.16 µg/mL	0.16 µg/mL	0.6 µg/mL	5 µg/mL	0.6 µg/mL	> 20 µg/mL	0.6 µg/mL	0.08 µg/mL	2.5 µg/mL	2.5 µg/mL	O=C(O)c1c(F)ccc2c1OB(O)CC2
20 µg/mL	5 µg/mL	20 µg/mL	5 µg/mL	> 20 µg/mL	0.6 µg/mL	0.16 µg/mL	20 µg/mL	2.5 µg/mL	–	–	–	–	O=C(O)c1c(OCCF)ccc2c1OB(O)[C@@H](Sc1nncs1)C2
10 µg/mL	0.3 µg/mL	5 µg/mL	2.5 µg/mL	5 µg/mL	0.6 µg/mL	1.25 µg/mL	20 µg/mL	20 µg/mL	–	–	–	–	O=C(O)c1c(F)ccc2c1OB(O)[C@@H](Sc1nncs1)C2
> 10 µg/mL	> 10 µg/mL	> 10 µg/mL	> 10 µg/mL	> 10 µg/mL	> 20 µg/mL	> 20 µg/mL	–	–	–	–	–	–	O=C(O)c1cccc2c1OB(O)[C@@H](Sc1ncc[nH]1)C2
> 20 µg/mL	> 20 µg/mL	> 20 µg/mL	> 20 µg/mL	> 20 µg/mL	2.5 µg/mL	1.25 µg/mL	–	–	–	–	–	–	O=C(O)c1cccc2c1OB(O)[C@@H](Sc1cccnc1)C2
10 µg/mL	2.5 µg/mL	20 µg/mL	0.3 µg/mL	2.5 µg/mL	0.6 µg/mL	0.16 µg/mL	–	–	–	–	–	–	CO[C@H]1Cc2cccc(C(=O)O)c2OB1O
20 µg/mL	5 µg/mL	5 µg/mL	20 µg/mL	> 20 µg/mL	2.5 µg/mL	0.3 µg/mL	> 20 µg/mL	2.5 µg/mL	–	–	–	–	O=C(O)c1c(OCc2nncs2)ccc2c1OB(O)[C@@H](Sc1nncs1)C2
20 µg/mL	10 µg/mL	> 20 µg/mL	20 µg/mL	> 20 µg/mL	0.6 µg/mL	0.16 µg/mL	> 20 µg/mL	1.25 µg/mL	–	–	–	–	COCCOc1ccc2c(c1C(=O)O)OB(O)[C@@H](Sc1nncs1)C2

— ChEMBL document CHEMBL4616632, “Discovery of Cyclic Boronic Acid QPX7728, an Ultrabroad-Spectrum Inhibitor of Serine and Metallo-β-lactamases” (J Med Chem, 2020)
